# Assay results published in US20220326218A1, “COMPOSITION AND METHOD FOR INHIBITING BORC COMPLEX TO TREAT CANCERS WITH NF1 DEFICIENCY AND DYSREGULATED RAS SIGNALING” (THE TRUSTEES OF DARTMOUTH COLLEGE, priority 2019, published 2022).
# Assays:
# BNIP3L/Nix [1] = assay: Western immunoblotting of BNIP3L/Nix; format: cell-based, human; settings: U87-MG, 2 μM, 24 h, 20 μM QVD pre-treatment
# Method: U87-MG cells were plated at 500,000 cells/well in 6-well plates and allowed to adhere overnight (Falcon). Medium was removed and replaced with fresh medium containing drugs or compounds for the indicated timepoints. Cells were collected after treatment by washing with PBS, harvested with trypsin plus agitation to detach cells, pelleted in a centrifuge and resuspended in PBS to wash. Cells were transferred to 1.5 mL microcentrifuge tubes, pelleted, and resuspended in RIPA lysis buffer (50 mM Tris pH 8.0, 150 mM NaCl, 1% nonidet P40, 0.5% sodium deoxycholate, and 0.05% SDS) containing 1 mM NaVO4, 1 mM NaF, 1 mM phenylmethylsulfonyl fluoride, 0.1 μg/mL antipain, 1 μM aprotinin, 100 μM benzamidine HCl, 0.1 μg/mL leupeptin, 0.1 μg/mL pepstatin, and 0.1 μg/mL soybean trypsin inhibitor. Protein was quantified using a BCA assay kit (Pierce). 50 μg of protein was prepared in 1× Laemmli sample buffer (50 mM Tris pH 6.8, 0.02% w/v bromophenol blue, 2% w/v SDS, 10% v/v glycerol, 1% v/v beta-mercaptoethanol, 12.5 mM EDTA) and separated by SDS-PAGE on a 4-15% polyacrylamide gradient gel (Bio-Rad). […]
# erg6Δ yeast = assay: Yeast dose response curves, control strains; format: cell-based, Saccharomyces cerevisiae; settings: 30° C., 18 h, normalized to DMSO
# Method: (§1) S. cerevisiae strains were plated at an OD600 of 0.05 in 96-well plates (Falcon) and treated with SC complete containing compound starting at 100 μM, followed by 2-fold serial dilutions to generate a 10-point range of concentrations normalized with DMSO; one row was treated with DMSO as a control. Yeast were incubated for 18 h. To process, the optical density was read using a Spectramax M2 (Molecular Devices) at a wavelength of 600 nm and normalized to DMSO. Each experiment was repeated 2-3 times with 4 technical replicates per experiment.
# (§2) A high-throughput screen in Saccharomyces cerevisiae lacking a yeast homologue of NF1, IRA2 (ira2Δ) was developed and carried out to identify tool compounds that elicited synthetic lethality with NF1 loss (15). ira2Δ yeast have increased RAS-GTP, which results in increased MAPK and PKA signaling analogous to the pathways that are activated in NF1-deficient Schwann cells (17). […]
# (§3) More than 5,100 structurally diverse compounds selected from and representative of a >340,000-compound library were screened. […] To determine whether Y102 was also effective in human tumor cells, the efficacy of Y102 was evaluated in two NF1-deficient human cancer cell line models of glioblastoma, U87-MG and U251-MG, and an NF1-deficient Neurofibromatosis type 1-associated MPNST cell line sNF96.2. […]
# U251-MG cells = assay: alamarBlue assay, U251-MG; format: cell-based, human; settings: up to 3 days, 20 μM to 0.039 μM
# Method: Cells were plated at 5,000 cells/well in 96-well plates and allowed to adhere overnight. […] Cells were incubated for 72 h. 3 h prior to end of incubation, alamarBlue (Invitrogen) was added to a final concentration of 5% v/v. Fluorescence was read using a Spectramax M2 at an excitation of 544 nm and an emission of 590 nm, and fluorescence was normalized to DMSO. Each experiment contains 4 technical replicates.
# erg6Δira2Δ yeast = assay: Yeast dose response curves, erg6Δira2Δ strain; format: cell-based, Saccharomyces cerevisiae; settings: 30° C., 18 h, 100 μM to 0.039 μM, normalized to DMSO
# Method: as §1, §2, §3
# BNIP3L/Nix [2] = assay: qPCR of BNIP3L/Nix transcript; format: cell-based, human; settings: U87-MG
# U87-MG cells = assay: Flow cytometry cell cycle distribution (DNA content); format: cell-based, human; settings: 2 μM, 24 h
# Method: U87-MG cells were plated at 500,000 cells/well in a 6-well plate and allowed to adhere overnight. The medium was replaced with cell culture media containing DMSO, 2 μM Y102, 100 nM Doxorubicin, or 100 μM CoCl2 for 24 hours. At the end of the incubation, cells were rinsed twice with PBS, trypsinized, and rinsed again with PBS prior to fixation with BD cytofix/cytoperm for 30 minutes on ice. After washing with BD perm/wash twice, cells were stained with DAPI at a final concentration 0.33 μg/mL in PBS for 30 minutes on ice. Cells were washed twice more with BD perm/wash, and resuspended in PBS for analysis. The cells were transferred to flow cytometry tubes (14-961-10, Fisherbrand) and analyzed using a MacsQuant VYB 8-color flow cytometer. DNA content was detected using the V1 channel. This experiment was repeated twice, and the percentage of cells in each cell cycle stage is shown. 50,000 events per sample were collected and cellular debris was gated out of the dataset.
smiles,measurement,setting,value
Cn1cnnc1S/C=C/C(=O)c1ccc(F)cc1 [Y102],BNIP3L/Nix protein levels versus DMSO,BNIP3L/Nix [1],little difference
same,effect on growth of control strains at concentrations inhibitory to erg6Δira2Δ yeast,erg6Δ yeast,no effect
same,sensitivity of NF1-deficient cell line to treatment,U251-MG cells,sensitive
same,effect on growth of erg6Δira2Δ yeast (OD600),erg6Δira2Δ yeast,inhibitory effect
same,BNIP3L/Nix RNA levels versus DMSO,BNIP3L/Nix [2],little difference
same,cell cycle arrest (cell cycle distribution by DNA content),U87-MG cells,no indication
